# Laboratory results from PubChem BioAssay (NCI).
#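 How tested: cells in 96-well plates exposed to compound for 48 hours at five concentrations. GI50 marks 50% less growth. The concentration for full growth arrest is given as TGI.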
# Assays:
# Assay in all cases: inhibition of tumour cell growth, NCI panel, 48 h
# HS 578T breast = system: HS 578T breast
# SK-OV-3 ovarian = system: SK-OV-3 ovarian
# SNB-75 CNS = system: SNB-75 CNS
# COLO 205 colon = system: COLO 205 colon
# UACC-257 melanoma = system: UACC-257 melanoma
# SK-MEL-28 melanoma = system: SK-MEL-28 melanoma
# LOX IMVI melanoma = system: LOX IMVI melanoma
# EKVX NSCLC = system: EKVX NSCLC
# SR leukemia = system: SR leukemia
# T-47D breast = system: T-47D breast
# OVCAR-3 ovarian = system: OVCAR-3 ovarian
# PC-3 prostate = system: PC-3 prostate
# K-562 leukemia = system: K-562 leukemia
# CCRF-CEM leukemia = system: CCRF-CEM leukemia
# MDA-MB-231 breast = system: MDA-MB-231 breast
# NCI-H522 lung = system: NCI-H522 lung
# M14 melanoma = system: M14 melanoma
# HCT-116 colon = system: HCT-116 colon
# IGROV1 ovarian = system: IGROV1 ovarian
# BT-549 breast = system: BT-549 breast
# HCT-15 colon = system: HCT-15 colon
# A498 renal = system: A498 renal
# U251 CNS = system: U251 CNS
# SNB-19 CNS = system: SNB-19 CNS
# HOP-92 NSCLC = system: HOP-92 NSCLC
# SK-MEL-2 melanoma = system: SK-MEL-2 melanoma
# MDA-MB-435 = system: MDA-MB-435
# UACC-62 melanoma = system: UACC-62 melanoma
# A549 NSCLC = system: A549 NSCLC
# 786-0 renal = system: 786-0 renal
# UO-31 renal = system: UO-31 renal
# SF-539 CNS = system: SF-539 CNS
# KM12 colon = system: KM12 colon
# MCF7 breast = system: MCF7 breast
# MOLT-4 leukemia = system: MOLT-4 leukemia
# SW-620 colon = system: SW-620 colon
# HOP-62 NSCLC = system: HOP-62 NSCLC
# OVCAR-4 ovarian = system: OVCAR-4 ovarian
# NCI-H226 lung = system: NCI-H226 lung
# RPMI-8226 leukemia = system: RPMI-8226 leukemia
# ACHN renal = system: ACHN renal
# OVCAR-8 ovarian = system: OVCAR-8 ovarian
# SF-295 CNS = system: SF-295 CNS
# SF-268 CNS = system: SF-268 CNS
# SK-MEL-5 melanoma = system: SK-MEL-5 melanoma
# HT29 colon = system: HT29 colon
# HL-60(TB) leukemia = system: HL-60(TB) leukemia
# DU-145 prostate = system: DU-145 prostate
# CAKI-1 renal = system: CAKI-1 renal
# RXF 393 renal = system: RXF 393 renal
# NCI-H460 lung = system: NCI-H460 lung
# TK-10 renal = system: TK-10 renal
# SN12C renal = system: SN12C renal
smiles,measurement,setting,value
O=C(NCc1ccc(Cl)cc1Cl)c1ccc(NC2=C(Cl)C(=O)N(Cc3ccccc3)C2=O)cc1,GI50,HS 578T breast,23.4 µM
same,TGI,HS 578T breast,52.7 µM
same,GI50,SK-OV-3 ovarian,57.5 µM
same,TGI,SK-OV-3 ovarian,> 100 µM
same,GI50,SNB-75 CNS,17.8 µM
same,TGI,SNB-75 CNS,34.2 µM
same,GI50,COLO 205 colon,23.3 µM
same,TGI,COLO 205 colon,66.5 µM
same,GI50,UACC-257 melanoma,61 µM
same,TGI,UACC-257 melanoma,> 100 µM
same,GI50,SK-MEL-28 melanoma,41.6 µM
same,TGI,SK-MEL-28 melanoma,> 100 µM
same,GI50,LOX IMVI melanoma,7.02 µM
same,TGI,LOX IMVI melanoma,> 100 µM
same,GI50,EKVX NSCLC,36.4 µM
same,TGI,EKVX NSCLC,> 100 µM
same,GI50,SR leukemia,0.734 µM
same,TGI,SR leukemia,2.55 µM
same,GI50,T-47D breast,51.3 µM
same,TGI,T-47D breast,> 100 µM
same,GI50,OVCAR-3 ovarian,31.9 µM
same,TGI,OVCAR-3 ovarian,> 100 µM
same,GI50,PC-3 prostate,14.3 µM
same,TGI,PC-3 prostate,31.9 µM
same,GI50,K-562 leukemia,9.98 µM
same,TGI,K-562 leukemia,30.9 µM
same,GI50,CCRF-CEM leukemia,1.41 µM
same,TGI,CCRF-CEM leukemia,7.65 µM
same,GI50,MDA-MB-231 breast,21.1 µM
same,TGI,MDA-MB-231 breast,55.9 µM
same,GI50,NCI-H522 lung,24.6 µM
same,TGI,NCI-H522 lung,> 100 µM
same,GI50,M14 melanoma,58.7 µM
same,TGI,M14 melanoma,> 100 µM
same,GI50,HCT-116 colon,53.5 µM
same,TGI,HCT-116 colon,> 100 µM
same,GI50,IGROV1 ovarian,15.8 µM
same,TGI,IGROV1 ovarian,> 100 µM
same,GI50,BT-549 breast,20.3 µM
same,TGI,BT-549 breast,42 µM
same,GI50,HCT-15 colon,32.4 µM
same,TGI,HCT-15 colon,> 100 µM
same,GI50,A498 renal,28.1 µM
same,TGI,A498 renal,56.8 µM
same,GI50,U251 CNS,15.7 µM
same,TGI,U251 CNS,34.2 µM
same,GI50,SNB-19 CNS,44.1 µM
same,TGI,SNB-19 CNS,> 100 µM
same,GI50,HOP-92 NSCLC,10.6 µM
same,TGI,HOP-92 NSCLC,27.8 µM
same,GI50,SK-MEL-2 melanoma,78.8 µM
same,TGI,SK-MEL-2 melanoma,> 100 µM
same,GI50,MDA-MB-435,33.4 µM
same,TGI,MDA-MB-435,> 100 µM
same,GI50,UACC-62 melanoma,18.4 µM
same,TGI,UACC-62 melanoma,39.8 µM
same,GI50,A549 NSCLC,36 µM
same,TGI,A549 NSCLC,> 100 µM
same,GI50,786-0 renal,30.1 µM
same,TGI,786-0 renal,> 100 µM
same,GI50,UO-31 renal,3.41 µM
same,TGI,UO-31 renal,> 100 µM
same,GI50,SF-539 CNS,21.3 µM
same,TGI,SF-539 CNS,39.1 µM
same,GI50,KM12 colon,38.4 µM
same,TGI,KM12 colon,> 100 µM
same,GI50,MCF7 breast,11.9 µM
same,TGI,MCF7 breast,48.9 µM
same,GI50,MOLT-4 leukemia,7.17 µM
same,TGI,MOLT-4 leukemia,23.9 µM
same,GI50,SW-620 colon,26.9 µM
same,TGI,SW-620 colon,> 100 µM
same,GI50,HOP-62 NSCLC,36.3 µM
same,TGI,HOP-62 NSCLC,> 100 µM
same,GI50,OVCAR-4 ovarian,18.5 µM
same,TGI,OVCAR-4 ovarian,40.3 µM
same,GI50,NCI-H226 lung,26.8 µM
same,TGI,NCI-H226 lung,> 100 µM
same,GI50,RPMI-8226 leukemia,4.45 µM
same,TGI,RPMI-8226 leukemia,44.5 µM
same,GI50,ACHN renal,20.8 µM
same,TGI,ACHN renal,48.1 µM
same,GI50,OVCAR-8 ovarian,12 µM
same,TGI,OVCAR-8 ovarian,26.5 µM
same,GI50,SF-295 CNS,32.8 µM
same,TGI,SF-295 CNS,> 100 µM
same,GI50,SF-268 CNS,18.9 µM
same,TGI,SF-268 CNS,49.1 µM
same,GI50,SK-MEL-5 melanoma,24 µM
same,TGI,SK-MEL-5 melanoma,66.7 µM
same,GI50,HT29 colon,54.3 µM
same,TGI,HT29 colon,> 100 µM
same,GI50,HL-60(TB) leukemia,14.8 µM
same,TGI,HL-60(TB) leukemia,60.8 µM
same,GI50,DU-145 prostate,39.9 µM
same,TGI,DU-145 prostate,> 100 µM
same,GI50,CAKI-1 renal,18.2 µM
same,TGI,CAKI-1 renal,52.4 µM
same,GI50,RXF 393 renal,18.7 µM
same,TGI,RXF 393 renal,52.6 µM
same,GI50,NCI-H460 lung,17.8 µM
same,TGI,NCI-H460 lung,47 µM
same,GI50,TK-10 renal,28.7 µM
same,TGI,TK-10 renal,91.4 µM
same,GI50,SN12C renal,26.7 µM
same,TGI,SN12C renal,75.5 µM
